For test [1], the system named is apomorphine-induced stereotypy in rats. In words: Apomorphine-induced stereotypy in rats (APO). Type of test: in vivo, rat. The note with it: n.d. = found not active at threshold dose 2.5 mg/kg, or 10 mg/kg if (a). How it is done:
Apomorphine (1.0 mg/kg, i.v.)-induced stereotypy (compulsive sniffing, licking, chewing) was scored every 5 min over the first hour after injection of apomorphine, following a 1 hour interval pre-treatment with the test compound. The score system was: (3) pronounced, (2) moderate, (1) slight, and (0) absent.

Test [2] has as its target T1, Rat recombinant PDE10A (rPDE10A2) (Rattus norvegicus, UniProt Q9QYJ6).
T1 construct: inferred from metal chelate purification; made in house; host or cells: Sf9 insect cells, baculovirus
T1 sequence (Q9QYJ6 1-794): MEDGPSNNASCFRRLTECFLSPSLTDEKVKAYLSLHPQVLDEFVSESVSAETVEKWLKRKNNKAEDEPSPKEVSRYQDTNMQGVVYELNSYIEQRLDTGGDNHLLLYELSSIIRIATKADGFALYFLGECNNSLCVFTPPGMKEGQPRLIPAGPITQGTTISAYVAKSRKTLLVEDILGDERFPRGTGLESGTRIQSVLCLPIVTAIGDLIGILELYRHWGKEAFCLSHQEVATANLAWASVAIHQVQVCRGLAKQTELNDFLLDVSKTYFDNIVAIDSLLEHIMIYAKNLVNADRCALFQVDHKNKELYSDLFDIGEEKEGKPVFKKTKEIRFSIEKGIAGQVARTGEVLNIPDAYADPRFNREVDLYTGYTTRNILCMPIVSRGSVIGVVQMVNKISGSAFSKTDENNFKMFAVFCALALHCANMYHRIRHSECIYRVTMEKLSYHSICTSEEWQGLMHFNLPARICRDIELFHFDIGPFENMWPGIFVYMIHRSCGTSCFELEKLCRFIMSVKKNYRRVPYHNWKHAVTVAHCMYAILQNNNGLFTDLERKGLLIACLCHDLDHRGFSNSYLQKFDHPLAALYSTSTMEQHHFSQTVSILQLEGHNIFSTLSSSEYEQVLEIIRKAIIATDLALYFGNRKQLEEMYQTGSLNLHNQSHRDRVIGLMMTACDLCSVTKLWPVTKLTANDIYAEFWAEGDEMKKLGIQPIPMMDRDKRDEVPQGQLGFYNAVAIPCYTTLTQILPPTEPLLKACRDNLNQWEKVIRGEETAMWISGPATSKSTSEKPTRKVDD
The test is described as follows: In vitro assay PDE10A (SPA, 3H-cAMP). In kind it is biochemical. The note with it: Table 3; −log IC50 expressed in mol/L. As for the experimental part:
Rat recombinant PDE10A (rPDE10A2) was expressed in Sf9 cells using a recombinant rPDE10A baculovirus construct. Cells were harvested after 48 h of infection and the rPDE10A protein was purified by metal chelate chromatography on Ni-sepharose 6FF. Tested compounds were dissolved and diluted in 100% DMSO to a concentration 100 fold of the final concentration in the assay. […] 10 μl of rPDE10A enzyme in incubation buffer was added and the reaction was started by addition of 10 μl substrate to a final concentration of 60 nM cAMP and 0.008 μCi ^3H-cAMP. The reaction was incubated for 60 minutes at room temperature. […] After sedimentation of the beads during 30 minutes the radioactivity was measured in a Perkin Elmer Topcount scintillation counter and results were expressed as cpm. For blanc values the enzyme was omitted from the reaction and replaced by incubation buffer. Control values were obtained by addition of a final concentration of 1% DMSO instead of compound. The same assay principle is applied for the measurement of the affinity of the compound for other members of the PDE family with appropriate modifications in incubation buffer, substrate concentration, incubation time and stop solution.

The values that follow come from patent publication US8716282B2, “Imidazo[1,2-b]pyridazine derivatives and their use as PDE10 inhibitors” (Janssen Pharmaceutica NV, priority 2009, dated 2014).

`COCCOc1cncc(-c2c(C)nc3c(-c4ccncc4)ccnn23)c1` [Compound 149, 3-[5-(2-methoxyethoxy)-3-pyridinyl]-2-methyl-8-(4-pyridinyl)-imidazo[1,2-b]pyridazine]: in test [1], the “APO ED50 (mg/kg)” value is “n.d. (n.d. means the compound was found not active at 2.5 or at 10 mg/kg (the latter being indicated as (a)), taken as threshold value, and was not further tested.)”. In addition, the “PDE10A2 pIC50” value in test [2] was found to be 6.82.
